Assay results reported in patent US9821062B2, “Cyanine dye compound and preparation method therefor, and dual-function agent for photodynamic therapy and preparation method therefor” (ZHEJIANG HISUN PHARMACEUTICAL CO., LTD., priority 2012, dated 2017).

Assay: Ultraviolet spectroscopy detection: long-wavelength absorption peak, fluorescence, Stokes shift
Assay type: physicochemical
Excerpt: Electronic absorption spectra for the compounds are shown in FIG. 1, from which it can be seen that, all the compounds having a structure shown in formula VIII, formula IX, formula III, formula IV, formula V, and formula XVII provided according to the present invention show a strong long-wavelength absorption peak between 750 nm and 860 nm, and have an obvious Stokes shift between 37 nm and 41 nm.

CC1(C)C(/C=C/C2=C(Sc3ccc(C(=O)O)cc3)C(=C/C=C3/N(CCCCS(=O)(=O)O)c4ccc5ccccc5c4C3(C)C)/CCC2)=[N+](CCCCS(=O)(=O)O)c2ccc3ccccc3c21 [Formula IX]
Fluorescence: 876 nm
Stokes shift: 39 nm
Absorption peak (long-wavelength absorption peak): 837 nm
